Tests used:
S. aureus [1] = experiment: Drug combination by checkerboard dilution assay; type: cell-based; settings: STK848198 with SM, TOB, AMP, fosfomycin, SIS, gentamycin
Procedure: Drug combination assay. The potential combinational antimicrobial effects between individual drugs were determined by checkerboard dilution assay. Briefly, overnight cultured S. aureus was diluted in MH broth to ~1× 10^6 CFU/mL. Compounds were two-fold diluted by MH broth, then 50 μL of each compound were added to each well vertically and horizontally, respectively, in a 96-well cell culture plate. […] The fractional inhibitory concentration index (FICI) was calculated as (MICA in combination/MICA alone) + (MICB in combination/MICB alone)^20.

RAW264.7 = experiment: Inflammatory factors inhibition; type: cell-based; settings: LPS-treated RAW264.7, 16 μg/mL, 12 h
Procedure: Inflammatory factors inhibition by compounds. Cell line of RAW264.7 was cultured in DMEM medium with 10% FBS. After incubation at 37 ℃ 5% CO2 to log phase, the attached cells were washed with 1× PBS and added with 1 μg/mL of LPS. After incubation at 37 ℃ 5% CO2 for 30 min, 16 μg/mL of C218-0546 or STK848198 was added to each well. The cells were further cultured for 12h, and the cell precipitate was collected for qRT-PCR while the supernatant was collected for ELISA.
For gene expression determination. One milliliter of Trizol was added to lysis the cells. Then, the suspension was incubated with 200 μL chloroform for 3 min. After centrifugation at 12000 rpm 4℃ for 15 min, the aqueous phase was removed to RNase-free tubes, and added with equal volume of isopropanol. After centrifugation at 12000 rpm 4℃, the RNA precipitation was collected and wash with 75% ethanol. […] Absorbance at 260nm and 280 nm was detected to determine the RNA concentration and purity. cDNA was synthesized with HiFiScript cDNA Synthesis Kit (CoWin Biosciences, Beijing, China) according to the manufacture’s specification, and UltraSYBR Mixture (2×, CoWin Biosciences, Beijing, China) was used for qPCR determination.
ELISA kit (Proteintech, Wuhan, China) was used for cytokines production quantification. […] Then, 100 μL substrate was added to each well and the absorbance at 450 nm was determined.

hERG = molecular target: T1, hERG (Homo sapiens, UniProt Q12809); experiment: hERG patch clamp; type: cell-based; settings: HEK293 cells expressing hERG channels, pH 7.4, hERG potassium channels
T1 construct: expressed in transfected cells; host or cells: HEK293
T1 sequence (Q12809 whole entry): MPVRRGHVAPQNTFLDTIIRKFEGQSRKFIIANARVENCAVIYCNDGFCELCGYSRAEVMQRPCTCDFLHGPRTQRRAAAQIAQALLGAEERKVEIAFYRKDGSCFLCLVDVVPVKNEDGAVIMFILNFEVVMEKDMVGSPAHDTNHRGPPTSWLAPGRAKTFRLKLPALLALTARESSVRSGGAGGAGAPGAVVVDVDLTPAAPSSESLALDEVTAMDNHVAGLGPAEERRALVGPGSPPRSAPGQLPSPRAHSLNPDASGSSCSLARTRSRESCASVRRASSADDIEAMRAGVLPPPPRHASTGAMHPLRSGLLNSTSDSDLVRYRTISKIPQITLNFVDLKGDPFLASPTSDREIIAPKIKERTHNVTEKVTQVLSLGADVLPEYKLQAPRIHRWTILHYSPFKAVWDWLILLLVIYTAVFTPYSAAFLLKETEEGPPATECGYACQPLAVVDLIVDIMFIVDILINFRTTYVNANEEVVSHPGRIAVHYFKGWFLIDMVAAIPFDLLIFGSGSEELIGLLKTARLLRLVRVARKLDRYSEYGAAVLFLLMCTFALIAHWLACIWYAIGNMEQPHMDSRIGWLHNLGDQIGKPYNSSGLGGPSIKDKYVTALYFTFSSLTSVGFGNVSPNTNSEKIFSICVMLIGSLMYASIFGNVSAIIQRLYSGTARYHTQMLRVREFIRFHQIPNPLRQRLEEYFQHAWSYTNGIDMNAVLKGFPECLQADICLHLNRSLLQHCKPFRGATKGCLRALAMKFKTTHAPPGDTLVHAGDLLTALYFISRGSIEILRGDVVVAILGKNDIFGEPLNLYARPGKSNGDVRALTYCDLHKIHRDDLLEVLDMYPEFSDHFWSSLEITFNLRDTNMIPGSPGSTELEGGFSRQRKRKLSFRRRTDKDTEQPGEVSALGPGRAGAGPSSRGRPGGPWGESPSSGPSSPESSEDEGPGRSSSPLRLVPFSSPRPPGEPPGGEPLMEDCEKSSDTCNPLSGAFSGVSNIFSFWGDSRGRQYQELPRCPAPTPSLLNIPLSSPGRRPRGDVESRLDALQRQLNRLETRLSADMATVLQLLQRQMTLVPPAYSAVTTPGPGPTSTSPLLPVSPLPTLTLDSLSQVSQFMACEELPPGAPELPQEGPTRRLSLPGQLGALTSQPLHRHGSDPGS
Procedure: hERG. hERG channels expressed HEK293 cell line was cultured in DMEM at 37℃ with 10% FBS to ~70% of log phase. Then, the cells were washed with PBS and digested with trypsin. After incubation at 37 ℃ for 2-3 min, the cells were washed again and adjusted to ~ 2×10^3/mL. The patch clamp detection experiment was performed after the cells attached to the cell wall. The extracellular fluid was prepared as 137 mM NaCl,1 mM MgCl2‧6H2O, 4 mM KCl,1.8 mM CaCl2‧2H2O, 10 mM D-Glucose, 10 mM HEPES, pH=7.4. And the intracellular fluid was prepared as 140 mM KCl,10 mM EGTA, 5 mM MgCl2‧6H2O, 10 mM HEPES, 5 mM Mg-ATP, pH=7.2. The current data was collected by using Pathmaster software. And the peak current inhibition rate was calculated as: (1−Peak tail current compoundPeak tail current veℎicle). The concentration-effects were fitted by the Hill equation: I=Imax∙(1/［1+（C1/2/［C］）^h), where [C], C1/2, and h represented the drug concentration, half inhibitory concentration (IC50), Hill coefficient, respectively^19.

S. aureus [2] = experiment: Peritonitis-sepsis model; type: in vivo, ICR mice; settings: i.p., 24 h postinfection
Procedure: Peritonitis-sepsis model. Six to seven-week-old female ICR mice were included. […] Mice were injected with 500 μL of the suspension in the presence of 5% mucin by i.p.. An hour post-infection, the mice were administered with: 1) EL+ethanol, 2) […]-0546 (30 mg/kg), and 3) STK848198 (30 mg/kg) alone or in combination with ampicillin (AMP, 25 mg/kg)^38 or amikacin (AMK, 25 mg/kg).

[3] = Liver microsomal metabolism analysis; type: in vitro ADME; settings: human; liver microsomes in vitro
Procedure: Liver microsomal metabolism analysis. Human liver microsome (20 mg protein/mL) was purchased from IPHASE (Beijing, China). One microliter of C218-0546 or STK848198 (200 μM) was incubated with 2 μL of liver microsome in the presence or absence of NADPH. Phenacetin (100 μM) was used as a positive control. After incubation at 37℃ for 0, 15, 30, 45, 60 and 90 min, respectively, the samples were cooled on ice and added with 500 μL of stop solution. The remained compounds were quantified with a LC-MS (Triple Quad™ 5500, AB SCIEX, USA).

[4] = In vivo toxicity analysis; design: species or system ICR mice; settings: acute, i.p. 30 mg/kg, 24 h
Procedure: In vivo toxicity analysis. For acute in vivo toxicity determination, specific ICR female mice (N = 6 per group) were randomly divided into 3 groups. The mice were intraperitoneally injected with EL+ ethanol (vehicle group), or 30 mg/kg of […]=0546 or STK848198. Twenty-four hours post-administration, blood samples were collected from the ophthalmic venous plexus and the hematological parameters of white blood cell count (WBC), neutrophil ratio (N%), red blood cell count (RBC), hemoglobin levels (HGH), and platelet count (PLT) were measured. Meanwhile, serum samples were also collected by centrifuged at 4000 rpm for 10 min. And the biomarkers of alanine aminotransferase (ALT), urea nitrogen (BUN), and creatine kinase (CK) for liver, kidney and heart function monitoring, respectively, were also analyzed. Then, the mice were euthanized, and the organs of heart, liver, spleen, lungs and kidneys were removed and fixed in 4% neutral paraformaldehyde for Hematoxylin and eosin (H&E) staining. In addition, for 7-day in vivo toxicity detection, specific ICR female mice (N=5 per group) were intraperitoneally injected with 30 mg/kg of […]=0546 or STK848198 every day for a total of 7 days. The body weight was monitored, and the blood samples and organs were also collected and analyzed as described above^43.

Cc1nc2c(-c3ccc(Cl)cc3)cnn2c(O)c1Cc1ccccc1 [STK848198]
FICI (S. aureus [1]): ≤ 0.5 | inflammatory cytokines production (IL-1β, IL-6, TNFα decreased, IL-10 enhanced) (RAW264.7): inhibit inflammatory progress | IC50 (hERG): > 30 µM | bacterial loads in liver, spleen, lung, and kidney (S. aureus [2]; STK848198 30 mg/kg combined with AMP 25 mg/kg): significantly reduced the bacterial loads | bacterial loads in organs (S. aureus [2]; single use, vs vehicle): no statistical difference | half-life [3]: 43.6 min | erythrocyte, leukocyte, platelet parameters, ALT, BUN, CK vs vehicle [4]: No significant difference

From paper PMC11707430, “Novel antibiotics against Staphylococcus aureus without detectable resistance by targeting proton motive force and FtsH” (MedComm, 2025)
